Data taken from article PMC11204507, “Mechanistic Insights into the Neurotoxicity of 2,5-Dimethoxyphenethylamines (2C) and Corresponding N-(2-methoxybenzyl)phenethylamine (NBOMe) Drugs” (Journal of Xenobiotics, 2024).
Counter-ions that a name gives are not always drawn.

How the values were obtained:
serotonergic B65 cells = test system: serotonergic B65 cells; parameters: method as in doi:10.1007/s11419-020-00527-w; settings: cited from earlier work
MAO-A and MAO-B = settings: rat model; cited from earlier work
TK6 cells = test system: TK6 cells; parameters: method as in PMID 33348640; settings: 35 µM, 1 h; cited from earlier work
[1] = test system: differentiated SH-SY5Y cells; parameters: method as in PMID 37631071, PMID 25900438; settings: same in vitro model; cited from earlier work
[2] = test system: differentiated SH-SY5Y cells; parameters: method as in PMID 37631071, PMID 25900438; settings: same in vitro model; cited from earlier work; remark: listed apart in the source
[3] = test system: differentiated SH-SY5Y cells; settings: same experimental conditions; cited from earlier work
[4] = test system: differentiated SH-SY5Y cells; assay: Total glutathione (tGSH) levels, DTNB-GSH recycling assay; assay type: cell-based, human; settings: 100 μM, 24 h; control 100.0%
Excerpt: Glutathione has a critical role in cellular physiology, playing multiple essential roles in maintaining cellular health and function, including antioxidant defense, detoxification, and cellular signaling. The 5,5′-dithiobis(2-nitrobenzoic acid) (DTNB)-GSH recycling assay was used to measure total GSH (tGSH), which includes the reduced (GSH) and oxidized (GSSG) forms of glutathione. The assay relies on the reaction of GSH with DTNB, producing the yellow-colored 5-thio-2-nitrobenzoic acid (TNB). Thus, the TNB generated is directly proportional to the amount of GSH present in the sample [31].
Thus, the SH-SY5Y cells were seeded onto 6-well plates (25,000 cells/cm^2) following the previously described seeding and differentiation protocol. On the day of the experiment, the cells were exposed to different concentrations of the tested drugs (EC20 and EC50) for 24 h (37 °C, 5% CO2). At the end of the incubation period, the cells were centrifuged (5 min, 250 g, 4 °C). For the analysis of extracellular GSH levels, the supernatants were collected, and proteins precipitated with 30% HClO4 for at least 30 min (4 °C). For the analysis of intracellular GSH levels, after collecting the supernatants, the cells were treated with 5% HClO4 for at least 30 min (4 °C). Subsequently, the acidic samples were collected from the plates and centrifuged (5 min, 16,000× g, 4 °C), and the supernatants were stored until further analysis (−80 °C). To assess protein content, the pellets were resuspended in 1M NaOH, maintained at 4 °C overnight, and stored until further analysis (−20 °C). A Bio-Rad DC™ protein assay kit (Bio-Rad Laboratories, Hercules, CA, USA) was used to analyze protein content, in accordance with the manufacturer’s guidelines.
Before the tGSH quantification, the acidic samples were diluted (1:2) with 5% HClO4, and the diluted samples/standards were neutralized with an ice-cold KHCO3 solution (1:1) and centrifuged (5 min, 16,000× g, 4 °C).
Then, 100 µL of supernatant from each sample/standard was transferred into a 96-well plate and 65 µL of an extemporaneous reagent solution (0.68 mM NADPH and 3.96 mM DTNB prepared in a 7.5 pH phosphate buffer) was added to each well, and the plates were incubated for 15 min at 30 °C. After 15 min, 40 μL of a 10 U/mL glutathione reductase solution was added to each well and the formation of 5-thio-2-nitrobenzoic acid (TNB) was monitored every 10 s for 3 min (kinetic mode) at 415 nm in a multi-well plate reader (PowerWaveX, BioTek Instruments, Winooski, VT, USA).
The GSH levels were standardized to protein content. The results are presented as a percentage relative to the control cells (0 µM). A minimum of 6 independent experiments were conducted, in duplicate.
Glutamate/cysteine ligase (GCL), also recognized as gamma-glutamylcysteine synthetase (γ-GCS), is a key enzyme in the first step of glutathione biosynthesis, as it catalyzes the reaction between glutamate and cysteine to produce γ-glutamylcysteine. […] The SH-SY5Y cells were seeded onto 6-well plates (25,000 cells/cm^2) following the previously described seeding and differentiation protocol. On the day of the experiment, the cells were incubated with BSO (100 µM) for 24 h (37 °C, 5% CO2) and the quantification of GSH intracellular levels was achieved according to the previously described method in Section 2.11.

[5] = test system: differentiated SH-SY5Y cells; assay: Neutral red (NR) uptake cytotoxicity assay; assay type: cell-based, human
Procedure: The cells were seeded at a density of 25,000 cells/cm^2. To achieve a more mature neuron-like phenotype, SH-SY5Y cells were initially cultured in a complete medium supplemented with RA (10 µM). Subsequently, 3 days post-seeding, TPA (80 nM) was added to each well, and the cells were maintained for another 3 days until use, thus achieving a dopaminergic phenotype. In all the experiments, the cells were used between passages 22 and 28.
The differentiated SH-SY5Y cells (25,000 cells/cm^2) and primary rat cortical cultures (150,000 cells/cm^2) were seeded onto 96-well plates as previously described.
Accordingly, 6 days after seeding (differentiated SH-SY5Y cells) or at 8 DIV (primary cultures), the cells were exposed, for 24 h (37 °C, 5% CO2), to different concentrations of the drugs (0–1000 µM). Thus, the tested concentrations ranged from 0 to 1000 µM for 2C-T-2 and 2C-T-4; 0 to 500 µM for 2C-T-7; 0 to 250 µM for 25T2-NBOMe, and 0 to 100 µM for 25T4-NBOMe and 25T7-NBOMe.
The NR uptake assay is based on the detection of viable cells through the incorporation of the NR dye by the cell’s lysosomes. In brief, after 24 h of exposure to the tested drugs, the differentiated SH-SY5Y cells and primary rat cortical cultures were incubated with NR (50 µg/mL in complete medium) for 90 or 210 min, respectively, at 37 °C, in a 5% CO2-95% air atmosphere. To extract the absorbed dye, an acidified ethanol solution was used, and the absorbance was then measured at 540 nm in a multi-well plate reader (PowerWaveX, BioTek Instruments, Winooski, VT, USA). The cytotoxicity was estimated by the percentage of NR uptake relative to the control cells, and a minimum of 4 independent experiments were conducted in triplicate.

[6] = parameters: method as in earlier work; settings: reported CHI values of the calibration set; cited from earlier work
[7] = test system: differentiated SH-SY5Y cells; assay: Mitochondrial membrane potential, JC-1 dye; assay type: cell-based, human; settings: positive control, 100 µM, 2 h
Excerpt: Mitochondrial membrane potential (ΔΨm) is a valuable parameter that reflects the energy status and functional integrity of cells, and the JC-1 dye is widely used as an indicator of ΔΨm. In healthy cells with high ΔΨm, JC-1 forms J-aggregates that emit red fluorescence. In apoptotic or unhealthy cells with low ΔΨm, JC-1 remains in its monomeric form and emits green fluorescence. The ratio of red to green fluorescence intensity is proportional to the degree of polarization of the mitochondrial membrane (a higher ratio indicates a more polarized membrane).
Thus, the SH-SY5Y cells were seeded onto 24-well plates (25,000 cells/cm^2) following the previously described seeding and differentiation protocol. On the day of the experiment, the cells were exposed to different concentrations of the tested drugs (EC20 and EC50) for 24 h (37 °C, 5% CO2). CCCP (100 µM, 2 h) was used as a positive control for mitochondrial membrane depolarization. At the end of the incubation period, the medium was removed, and the cells were incubated, for 30 min, with 10 µM JC-1 under light protection (37 °C, 5% CO2). Subsequently, the plates were centrifuged (5 min, 300× g, room temperature), the supernatants were rejected, and the cells were washed 2 times with warm HBSS with calcium and magnesium. Fluorescence was recorded at the wavelengths of 485 nm excitation and 535 nm emission for JC-1 monomers and 535 nm excitation and 595 nm emission wavelengths for J-aggregates in a multi-well plate reader (PowerWaveX, BioTek Instruments, Winooski, VT, USA). The results are presented as the percentage of JC-1 red/green fluorescence ratio relative to the control cells, and a minimum of 5 independent experiments were conducted in triplicate.

[8] = test system: differentiated SH-SY5Y cells; assay: Intracellular calcium levels, Fluo-4 AM probe; assay type: cell-based, human; settings: positive control, 25 mM
Procedure: Calcium is a vital second messenger for almost every cellular process, including cellular signaling, muscle function, neurotransmitter release, membrane function, and apoptosis. Therefore, its levels inside cells are strictly controlled to maintain cellular homeostasis. The intracellular calcium levels were measured using the cell-permeable Fluo-4 AM probe. Inside the cells, Fluo-4 AM is cleaved to its active and fluorescent form—Fluo-4—which has a high affinity for calcium ions (Ca^2⁺). Thus, its fluorescence emission is directly proportional to the concentration of calcium ions in the intracellular environment.
Therefore, the SH-SY5Y cells were seeded onto 96-well plates (25,000 cells/cm^2) following the previously described seeding and differentiation protocol. […] The average value for negative control (EGTA-treated cells) was subtracted from every other condition and then the minimum average value was subtracted from the maximum average value for every other condition. The results are presented as a percentage relative to the control cells (0 µM). A minimum of 5 independent experiments were conducted in triplicate.

COc1cc(CCN)c(OC)cc1Cl [2C-C, reference compound]
mitochondrial production of ROS (serotonergic B65 cells): no significant alterations

COc1cc(CCN)c(OC)cc1C [2C-D]
deamination by MAO-A and MAO-B (MAO-A and MAO-B): both isoenzymes can catalyze the deamination

CCc1cc(OC)c(CCN)cc1OC [2C-E]
deamination by MAO-A and MAO-B (MAO-A and MAO-B): both isoenzymes can catalyze the deamination

COc1ccc(OC)c(CCN)c1 [2C-H]
increase in ROS levels (TK6 cells): two-fold

COc1cc([N+](=O)[O-])c(OC)cc1CCN [2C-N]
tGSH content [1]: significant decrease in the tGSH content
ROS production [2]: no ROS production
drug-induced cytotoxicity upon MAO inhibition [3]: significant increase in the drug-induced cytotoxicity was observed upon MAO inhibition

COc1cc(CCNCc2ccccc2OC)c(OC)cc1Cl [25C-NBOMe]
tGSH content [1]: significant decrease in the tGSH content
ROS production [2]: no ROS production

COc1cc([N+](=O)[O-])c(OC)cc1CCNCc1ccccc1OC [25N-NBOMe]
drug-induced cytotoxicity upon MAO inhibition [3]: significant increase in the drug-induced cytotoxicity was observed upon MAO inhibition

CCCCS(=N)(=O)CCC(N)C(=O)O [BSO, L-buthionine sulfoximine, reference compound]
GSH intracellular levels, % of control cells [4]: 9.2%
cytotoxicity, NR uptake ([5]; 100 μM, 24 h (Figure S2: + 50 μM for an additional 24 h)): No significant cytotoxic effects

c1ccc(CN2CCNCC2)cc1 [BZP]
tGSH content [1]: significant decrease in the tGSH content
ROS production [2]: no ROS production

c1ccc2[nH]cnc2c1 [Benzimidazole]
CHI0 pH 2.3 [6]: 6.3

CCCC(=O)c1ccccc1 [Butyrophenone]
CHI0 pH 2.3 [6]: 87.3

N#CC(C#N)=NNc1cccc(Cl)c1 [CCCP, carbonyl cyanide 3-chlorophenylhydrazone, reference compound]
mitochondrial membrane polarization (JC-1 red/green ratio), % of the control cells [7]: 56.3%

[Ca+2].[Cl-].[Cl-] [CaCl2, reference compound]
Ca2+ intracellular levels, % of control cells [8]: 141.0%

Cn1c(=O)c2c(ncn2C)n(C)c1=O [Caffeine, caffeine]
CHI0 pH 2.3 [6]: 23.41

NC(=O)N1c2ccccc2C=Cc2ccccc21 [Carbamazepine]
CHI0 pH 2.3 [6]: 60.42

COc1cc2c(c(OC)c1OC)-c1ccc(OC)c(=O)cc1[C@@H](NC(C)=O)CC2 [Colchicine]
CHI0 pH 2.3 [6]: 43.9

c1ccc2[nH]ccc2c1 [Indole]
CHI0 pH 2.3 [6]: 72.1

c1cc2c(cc1CN1CCNCC1)OCO2 [MDBP]
tGSH content [1]: significant decrease in the tGSH content
ROS production [2]: no ROS production

COc1ccc(N2CCNCC2)cc1 [MeOPP]
tGSH content [1]: significant decrease in the tGSH content
ROS production [2]: no ROS production

CC(=O)Nc1ccc(O)cc1 [Paracetamol]
CHI0 pH 2.3 [6]: 18.77

CCC(=O)c1ccccc1 [Propiophenone]
CHI0 pH 2.3 [6]: 77.4

FC(F)(F)c1cccc(N2CCNCC2)c1 [TFMPP]
tGSH content [1]: significant decrease in the tGSH content
ROS production [2]: no ROS production

Cn1c(=O)c2[nH]cnc2n(C)c1=O [Theophyline, theophylline]
CHI0 pH 2.3 [6]: 17.9

C#CCN(C)CCCOc1ccc(Cl)cc1Cl [clorgyline, reference compound]
cytotoxicity, NR uptake ([5]; 1 μM, 24 h of exposure): Neither clorgyline nor rasagiline (1 μM) showed significant cytotoxicity

COc1ccccc1CNCCc1cc(OC)c(OC)c(OC)c1 [mescaline-NBOMe]
tGSH content [1]: significant decrease in the tGSH content
ROS production [2]: no ROS production
drug-induced cytotoxicity upon MAO inhibition [3]: significant increase in the drug-induced cytotoxicity was observed upon MAO inhibition

COc1cc(CCN)cc(OC)c1OC [mescaline]
tGSH content [1]: significant decrease in the tGSH content
ROS production [2]: no ROS production
drug-induced cytotoxicity upon MAO inhibition [3]: significant increase in the drug-induced cytotoxicity was observed upon MAO inhibition

C#CCN[C@@H]1CCc2ccccc21 [rasagiline, rasagiline mesylate, reference compound]
cytotoxicity, NR uptake ([5]; 1 μM, 24 h of exposure): Neither clorgyline nor rasagiline (1 μM) showed significant cytotoxicity
